According to patent US20060035977A1, “Uses of acylated aminopropanediols and sulphur and nitrogen analogues of same f” (Gentif, priority 2003, published 2006):

Legend:
[1] = test system: LDL; assay: Protection against LDL oxidation induced by copper (conjugated diene formation); assay type: biochemical; conditions: for shift in the lag phase latency (delay): LDL oxidation induced by copper, conjugated dienes at 234 nm, relative to control (FIG. 4A); for antioxidant activity on LDL oxidation induced by copper: conjugated diene formation, 30° C., 8 hours
Experimental: LDL were prepared as described in Lebeau et al. (Lebeau, Furman et al. 2000). The solutions of the test compounds were prepared at 10^−2 M in ethanol and diluted in PBS so that the final concentration ranged from 0.1 to 100 μM with a total ethanol concentration of 1% (VN).
Before oxidation, EDTA was removed from the LDL preparation by dialysis. The oxidation reaction was then carried out at 30° C. by adding 100 μl of 16.6 μM CuSO4 to 800 μl of LDL (125 μg protein/ml) and 100 μl of a test compound solution. The formation of dienes, the species to be followed, was measured by the optical density at 234 nm in the samples treated with the compounds in the presence or absence of copper. Optical density at 234 nm was measured every 10 minutes for 8 hours on a thermostated spectrophotometer (Kontron Uvikon 930). The analyses were carried out in triplicate. A compound was considered to have antioxidant activity when it shifted the lag phase latency relative to the control sample. […] FIG. 4 presents an example of the results obtained with the inventive compounds.

[2] = biological target: T1, Gal4/PPARα (Homo sapiens, UniProt Q07869); assay: Gal4/PPARα transactivation system in HepG2 cells (luciferase reporter); conditions: 24 h, HepG2 cells transfected with Gal4/PPARα plasmids, compound in PC liposomes
T1 sequence (Q07869 239-466 limits assumed): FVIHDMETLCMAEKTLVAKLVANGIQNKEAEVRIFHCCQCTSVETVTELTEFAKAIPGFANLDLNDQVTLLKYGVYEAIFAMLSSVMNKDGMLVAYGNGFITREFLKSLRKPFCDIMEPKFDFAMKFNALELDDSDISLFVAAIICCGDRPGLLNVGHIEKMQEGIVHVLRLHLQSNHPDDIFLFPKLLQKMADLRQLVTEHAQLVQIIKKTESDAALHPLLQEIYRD
Experimental: PPAR activation was tested in vitro in RK13 fibroblast cell lines or in a hematocyte line HepG2 by measuring the transcriptional activity of chimeras composed of the DNA binding domain of the yeast gal4 transcription factor and the ligand binding domain of the different PPARs. The example below is given for HepG2 cells.
HepG2 cells were from ECACC (Porton Down, UK) and were grown in DMEM medium supplemented with 10% (V/V) fetal calf serum, 100 U/ml penicillin (Gibco, Paisley, UK) and 2 mM L-glutamine (Gibco, Paisley, UK). The culture medium was changed every two days. Cells were kept at 37° C. in a humidified 95% air/5% CO2 atmosphere.
HepG2 cells were seeded in 24-well culture dishes at 5×10^4 cells/well and transfected for 2 hours with the reporter plasmid pG5TkpGL3 (50 ng/well), the expression vectors pGal4-f, pGal4-mPPARα, pGal4-hPPARα, pGal4-hPPARγ, or pGal4-hPPARβ (100 ng/well) and the transfection efficiency control vector pRL-CMV (1 ng/well) according to the previously described protocol (Raspe, Madsen et al. 1999), then incubated for 36 hours with the test compounds. At the end of the experiment, the cells were lysed (Gibco, Paisley, UK) and luciferase activity was determined with a Dual-Luciferase™ Reporter Assay System kit (Promega, Madison, Wisc., USA) according to the supplier's instructions. The protein content of the cell extracts was then measured with the Bio-Rad Protein Assay kit (Bio-Rad, Munich, Germany) as directed by the supplier.
The results are expressed as the induction factor (luminescent signal of treated cells divided by luminescent signal of untreated cells) after the different treatments.

[3] = Effects on plasma lipids in rats in vivo; conditions: Sprague-Dawley rats, 300 mg/kg/day, intragastric gavage, once a day for 15 days
Experimental: Sprague-Dawley rats weighing 200 to 230 g (Charles River, L'Arbresle, France) were housed in a 12-hour light/dark cycle at a constant temperature of 20±3° C. After a 1-week acclimatization period, rats were weighed and distributed into groups of 8 animals selected such that the distribution of plasma cholesterol and triglyceride levels was uniform. The test compounds were suspended in a vehicle (0.5% carboxymethylcellulose (CMC) and 0.1% Tween) and administered by intragastric gavage at the indicated doses, once a day for 15 days. Animals had access to food and water ad libitum. At the end of the experiments, animals were weighed and sacrificed under anesthesia after a 5-hour fast. Blood was collected on EDTA. Plasma was isolated by centrifugation at 3000 rpm for 20 minutes. […]
Lipid concentrations in plasma (total cholesterol and triglycerides) were determined by a […] assay (Bio-Mérieux, Marcy I'Etoile, France) according to the supplier's instructions. Plasma concentrations of apolipoproteins AII, AI and CIII were determined as previously described (Raspe, Madsen et al. 1999) and (Asset, Staels et al. 1999).
To separate the lipoproteins according to size, 300 μl of plasma were loaded on a Sepharose 6HR 10/30 column (Pharmacia, Uppsala, Sweden) and eluted at a constant flow rate (0.2 ml/minute) in PBS (pH 7.2). Optical density of the eluent was recorded at 280 nm. […]

Row | Compound | antioxidant activity on LDL oxidation induced by copper [1] | induction factor (luminescent signal of treated cells divided by luminescent signal of untreated cells) ([2]; 5 μM) [fold] | induction factor (luminescent signal of treated cells divided by luminescent signal of untreated cells) ([2]; 15 μM) [fold] | induction factor (luminescent signal of treated cells divided by luminescent signal of untreated cells) ([2]; 50 μM) [fold] | induction factor (luminescent signal of treated cells divided by luminescent signal of untreated cells) ([2]; 100 μM) [fold] | melting point | further results
1 | CCCCCCCCCCCCCCSCC(=O)NCC(O)CO (stereo not drawn) [Ex 2, 3-(tetradecylthioacetylamino)propane-1,2-diol] | exhibit intrinsic antioxidant properties | 1.5 | 7.7 | 19.8 | 19.2 |  | shift in the lag phase latency (delay) [1]: 13.4%
2 | CCCCCCCCCCCCCCSCC(=O)NCC(CNC(=O)CSCCCCCCCCCCCCCC)OC(=O)CSCCCCCCCCCCCCCC [Ex 11, 1,3-ditetradecylthioacetylamino-2-(tetradecylthioacetyloxy)propane] | exhibit intrinsic antioxidant properties |  |  |  |  |  | total plasma cholesterol ([3]; D0, D7, D14 (FIG. 3A)): lowered; plasma triglycerides ([3]; D0, D7, D14 (FIG. 3B)): lowered
3 | CCCCCCCCCCCCCCCC(=O)NCC(O)CO (stereo not drawn) [Ex 3, 3-(palmitoylamino)propane-1,2-diol] |  |  |  |  |  | 104 to 108 °C | 
4 | 1,2-(dipalmitoyloxy)-3-tetradecylthioacetylaminopropane [Ex 4] | exhibit intrinsic antioxidant properties |  |  |  |  |  | shift in the lag phase latency (delay) [1]: 34.3%
5 | 1,2-(ditetradecylthioacetyloxy)-3-tetradecylthioacetylaminopropane [Ex 5] | exhibit intrinsic antioxidant properties | 1.2 | 2.5 | 7 | 10.5 |  | 
6 | CCCCCCCCCCCCCCCC(=S)SC(CN)CN.Cl.Cl |  |  |  |  |  | 181 °C (dec.) | 
7 | 1,2-(ditetradecylthioacetyloxy)-3-palmitoylaminopropane [Ex 6] | exhibit intrinsic antioxidant properties | 1.1 | 2.2 | 9.6 | 14.5 |  | 
8 | CCCCCCCCCCCCCCCC(=S)OC(CN)CN.Cl.Cl |  |  |  |  |  | 224 °C (dec.) | 
